{
  "source": "paper PMC5218480",
  "about": "(PLoS ONE, 2017)",
  "test_system": "MV-4-11 cells",
  "assay": "Gene expression microarray analysis (Affymetrix PrimeView) and GSEA",
  "type": "cell-based, human",
  "set-up": "RFU PODN (11730768_x_at) / Fold change /veh PODN (11730768_x_at) / RFU LINC00158 (11744669_a_at) / Fold change /veh LINC00158 (11744669_a_at) / RFU DUSP10 (11751237_a_at) / Fold change /veh DUSP10 (11751237_a_at) / RFU ID3 (11757404_x_at) / Fold change /veh ID3 (11757404_x_at) / RFU PLEKHG5 (11737974_s_at) / Fold change /veh PLEKHG5 (11737974_s_at) / RFU LRRC4B (11730491_at) / Fold change /veh LRRC4B (11730491_at) / RFU GIMAP4 (11747438_a_at) / Fold change /veh GIMAP4 (11747438_a_at) / RFU KRT8 (11758183_x_at) / Fold change /veh KRT8 (11758183_x_at) / RFU CNN1 (11734310_a_at) / Fold change /veh CNN1 (11734310_a_at) / RFU VPS37D (11726825_at) / Fold change /veh VPS37D (11726825_at) / RFU C10orf10 (11716522_x_at) / Fold change /veh C10orf10 (11716522_x_at) / RFU KIR2DL2 /// KIR2DL4 /// KIR2DL5A /// KIR2DL5B /// KIR2DS1 /// KIR2DS2 /// KIR2DS3 /// KIR2DS4 /// KIR3DL3 /// KIR3DL3 /// KIR3DS1 (11738374_at) / Fold change /veh KIR2DL2 /// KIR2DL4 /// KIR2DL5A /// KIR2DL5B /// KIR2DS1 /// KIR2DS2 /// KIR2DS3 /// KIR2DS4 /// KIR3DL3 /// KIR3DL3 /// KIR3DS1 (11738374_at) / RFU C1QL1 (11718748_at) / Fold change /veh C1QL1 (11718748_at) / RFU TMPRSS4 (11747572_a_at) / Fold change /veh TMPRSS4 (11747572_a_at) / RFU HAMP (11756126_x_at) / Fold change /veh HAMP (11756126_x_at) / RFU RNFT2 (11725882_a_at) / Fold change /veh RNFT2 (11725882_a_at) / RFU NR4A2 (11747474_a_at) / Fold change /veh NR4A2 (11747474_a_at) / RFU ABCC12 (11746883_a_at) / Fold change /veh ABCC12 (11746883_a_at) / RFU TMEM136 (11760407_x_at) / Fold change /veh TMEM136 (11760407_x_at) / RFU CLDN22 /// WWC2 (11732394_at) / Fold change /veh CLDN22 /// WWC2 (11732394_at) / RFU HLA-DPB1 (11760878_x_at) / Fold change /veh HLA-DPB1 (11760878_x_at) / RFU SPINT1 (11716480_a_at) / Fold change /veh SPINT1 (11716480_a_at) / RFU GAP43 (11754022_s_at) / Fold change /veh GAP43 (11754022_s_at) / RFU A4GNT (11735810_at) / Fold change /veh A4GNT (11735810_at) / RFU PRB3 (11715151_x_at) / Fold change /veh PRB3 (11715151_x_at) / RFU TUBB4B (11761932_at) / Fold change /veh TUBB4B (11761932_at) / RFU CAPN14 (11732068_a_at) / Fold change /veh CAPN14 (11732068_a_at) / RFU TMCC2 (11721928_a_at) / Fold change /veh TMCC2 (11721928_a_at) / RFU IRGQ (11745062_a_at) / Fold change /veh IRGQ (11745062_a_at) / RFU FAM174B (11720279_a_at) / Fold change /veh FAM174B (11720279_a_at) / RFU TMPRSS4 (11748680_a_at) / Fold change /veh TMPRSS4 (11748680_a_at) / RFU FAM212B (11763350_a_at) / Fold change /veh FAM212B (11763350_a_at) / RFU PLEKHG5 (11743358_a_at) / Fold change /veh PLEKHG5 (11743358_a_at) / RFU ZSCAN30 (11745921_a_at) / Fold change /veh ZSCAN30 (11745921_a_at) / RFU CMKLR1 (11741424_a_at) / Fold change /veh CMKLR1 (11741424_a_at) / RFU LOC101060620 /// MAPK8IP1 (11723275_at) / Fold change /veh LOC101060620 /// MAPK8IP1 (11723275_at) / RFU SPTSSB (11747773_x_at) / Fold change /veh SPTSSB (11747773_x_at) / RFU PRSS12 (11739890_at) / Fold change /veh PRSS12 (11739890_at) / RFU BIN1 (11741810_x_at) / Fold change /veh BIN1 (11741810_x_at) / RFU WNT11 (11732464_a_at) / Fold change /veh WNT11 (11732464_a_at) / RFU C10orf10 (11716521_a_at) / Fold change /veh C10orf10 (11716521_a_at) / RFU C5orf56 (11738089_at) / Fold change /veh C5orf56 (11738089_at) / RFU CYB561 (11721691_x_at) / Fold change /veh CYB561 (11721691_x_at) / RFU ANKRD19P (11752326_a_at) / Fold change /veh ANKRD19P (11752326_a_at) / RFU OR2T12 /// OR2T33 /// OR2T8 (11738714_s_at) / Fold change /veh OR2T12 /// OR2T33 /// OR2T8 (11738714_s_at) / RFU VCAN (11748164_a_at) / Fold change /veh VCAN (11748164_a_at) / RFU JSRP1 (11732532_at) / Fold change /veh JSRP1 (11732532_at) / RFU KRTAP10-11 (11738290_x_at) / Fold change /veh KRTAP10-11 (11738290_x_at) / RFU MYO3A (11730013_a_at) / Fold change /veh MYO3A (11730013_a_at) / RFU EBF3 (11725865_a_at) / Fold change /veh EBF3 (11725865_a_at) / RFU CAMK2N1 (11719241_x_at) / Fold change /veh CAMK2N1 (11719241_x_at) / RFU C5orf56 (11738088_a_at) / Fold change /veh C5orf56 (11738088_a_at) / RFU OLFML3 (11715873_a_at) / Fold change /veh OLFML3 (11715873_a_at) / RFU LOC100653217 /// NTM (11731650_a_at) / Fold change /veh LOC100653217 /// NTM (11731650_a_at) / RFU MAPK11 (11762145_a_at) / Fold change /veh MAPK11 (11762145_a_at) / RFU FIZ1 (11724087_x_at) / Fold change /veh FIZ1 (11724087_x_at) / RFU OASL (11726364_x_at) / Fold change /veh OASL (11726364_x_at) / RFU SOX15 (11748057_x_at) / Fold change /veh SOX15 (11748057_x_at) / RFU CD79A (11719716_a_at) / Fold change /veh CD79A (11719716_a_at) / RFU HIST1H1D (11736915_at) / Fold change /veh HIST1H1D (11736915_at) / RFU CASKIN2 (11723855_a_at) / Fold change /veh CASKIN2 (11723855_a_at) / RFU LOC730098 (11760151_x_at) / Fold change /veh LOC730098 (11760151_x_at) / RFU OR4N2 (11742367_at) / Fold change /veh OR4N2 (11742367_at) / RFU PRRT2 (11749266_a_at) / Fold change /veh PRRT2 (11749266_a_at) / RFU SNX32 (11753110_a_at) / Fold change /veh SNX32 (11753110_a_at) / RFU CDHR5 (11726645_a_at) / Fold change /veh CDHR5 (11726645_a_at) / RFU RCAN1 (11760418_a_at) / Fold change /veh RCAN1 (11760418_a_at) / RFU FAM167A (11723789_a_at) / Fold change /veh FAM167A (11723789_a_at) / RFU FAM26E (11764081_at) / Fold change /veh FAM26E (11764081_at) / RFU ISYNA1 (11749810_s_at) / Fold change /veh ISYNA1 (11749810_s_at) / RFU ACY1 (11761880_at) / Fold change /veh ACY1 (11761880_at) / RFU 11764098_at / Fold change /veh 11764098_at / RFU SAMD14 (11745864_x_at) / Fold change /veh SAMD14 (11745864_x_at) / RFU NPB (11741838_a_at) / Fold change /veh NPB (11741838_a_at) / RFU TMPRSS6 (11731388_a_at) / Fold change /veh TMPRSS6 (11731388_a_at) / RFU KRTAP10-2 (11738614_at) / Fold change /veh KRTAP10-2 (11738614_at) / RFU ARHGAP8 /// PRR5-ARHGAP8 (11727945_x_at) / Fold change /veh ARHGAP8 /// PRR5-ARHGAP8 (11727945_x_at) / RFU KRTAP5-7 /// NADSYN1 (11734609_at) / Fold change /veh KRTAP5-7 /// NADSYN1 (11734609_at) / RFU RASL12 (11751679_a_at) / Fold change /veh RASL12 (11751679_a_at) / RFU CDKN2B (11736163_a_at) / Fold change /veh CDKN2B (11736163_a_at) / RFU PRF1 (11729649_at) / Fold change /veh PRF1 (11729649_at) / RFU, ZNF638 /// ZNF638-IT1 / Fold change vs veh, ZNF638 /// ZNF638-IT1 / RFU, PANK3 / Fold change vs veh, PANK3 / RFU, SH3YL1 / Fold change vs veh, SH3YL1 / RFU, ZEB2 / Fold change vs veh, ZEB2 / RFU, NRIP1 / Fold change vs veh, NRIP1 / RFU, PTTG1IP / Fold change vs veh, PTTG1IP / RFU, CAPN2 / Fold change vs veh, CAPN2 / RFU, MED14 / Fold change vs veh, MED14 / RFU, SNORA58 / Fold change vs veh, SNORA58 / RFU, C1orf63 / Fold change vs veh, C1orf63 / RFU, LRRFIP1 / Fold change vs veh, LRRFIP1 / RFU, NDUFAF7 / Fold change vs veh, NDUFAF7 / RFU, SLC12A2 / Fold change vs veh, SLC12A2 / RFU, IBTK / Fold change vs veh, IBTK / RFU, ESF1 / Fold change vs veh, ESF1 / Fold change vs veh, TMEM50B / RFU, TAOK1 / Fold change vs veh, TAOK1 / RFU, ACBD3 / Fold change vs veh, ACBD3 / RFU, TMA16 / Fold change vs veh, TMA16 / RFU, RWDD3 / Fold change vs veh, RWDD3 / RFU, BCAT1 / Fold change vs veh, BCAT1 / RFU, EDEM3 / Fold change vs veh, EDEM3 / RFU, TMEM33 / Fold change vs veh, TMEM33 / RFU, WDR75 / Fold change vs veh, WDR75 / RFU, AHCTF1 / Fold change vs veh, AHCTF1 / RFU, TFRC / Fold change vs veh, TFRC / RFU, ZDHHC17 / Fold change vs veh, ZDHHC17 / RFU, NOM1 / Fold change vs veh, NOM1 / RFU, ARL8B / Fold change vs veh, ARL8B / RFU, ZBTB11 / Fold change vs veh, ZBTB11 / RFU, TAMM41 / Fold change vs veh, TAMM41 / RFU, KIAA1704 /// LOC100996395 / Fold change vs veh, KIAA1704 /// LOC100996395 / RFU, ING1 / Fold change vs veh, ING1 / RFU, TRMT61B / Fold change vs veh, TRMT61B / RFU, FUBP3 / Fold change vs veh, FUBP3 / RFU, TP53 / Fold change vs veh, TP53 / RFU, TNKS2 / Fold change vs veh, TNKS2 / RFU, ZFP14 / Fold change vs veh, ZFP14 / RFU, ACTR2 / Fold change vs veh, ACTR2 / RFU, PPP3R1 / Fold change vs veh, PPP3R1 / RFU, PIK3R1 / Fold change vs veh, PIK3R1 / RFU, HNRNPA1 / Fold change vs veh, HNRNPA1 / RFU, RNF170 / Fold change vs veh, RNF170 / RFU, ZNF28 / Fold change vs veh, ZNF28 / RFU, RNGTT / Fold change vs veh, RNGTT / RFU, OGT / Fold change vs veh, OGT / RFU, BRD1 / Fold change vs veh, BRD1 / RFU, MARS / Fold change vs veh, MARS / RFU, ZNF655 / Fold change vs veh, ZNF655 / RFU, FAHD1 / Fold change vs veh, FAHD1 / RFU, BDP1 / Fold change vs veh, BDP1 / RFU, LRRCC1 / Fold change vs veh, LRRCC1 / RFU, ARID1A / Fold change vs veh, ARID1A / RFU, ZNF146 / Fold change vs veh, ZNF146 / RFU, ZNF330 / Fold change vs veh, ZNF330 / RFU, GPN3 / Fold change vs veh, GPN3 / RFU, C9orf123 / Fold change vs veh, C9orf123 / RFU, N4BP2L2 / Fold change vs veh, N4BP2L2 / RFU, ARFIP1 / Fold change vs veh, ARFIP1 / RFU, FAM179B / Fold change vs veh, FAM179B / RFU, BCL10 / Fold change vs veh, BCL10 / RFU, UHRF1BP1L / Fold change vs veh, UHRF1BP1L / RFU, BET1 / Fold change vs veh, BET1 / RFU, CNOT2 / Fold change vs veh, CNOT2 / RFU, ZNF268 / Fold change vs veh, ZNF268 / Fold change vs veh, ZNF507 / RFU, DGCR2 / Fold change vs veh, DGCR2 / RFU, WDSUB1 / Fold change vs veh, WDSUB1 / Fold change vs veh, HSP90B1 /// MIR3652 / RFU, ADSS / Fold change vs veh, ADSS / RFU, GK / Fold change vs veh, GK / RFU, ZNF148 / Fold change vs veh, ZNF148 / RFU, TAF9 / Fold change vs veh, TAF9 / RFU, SLC1A5 / Fold change vs veh, SLC1A5 / RFU, SLMO2 / Fold change vs veh, SLMO2 / RFU, ABCC4 / Fold change vs veh, ABCC4 / RFU, LOC101060439 /// RAP1B / Fold change vs veh, LOC101060439 /// RAP1B / RFU, RFX7 / Fold change vs veh, RFX7 / RFU, GTPBP10 / Fold change vs veh, GTPBP10 / RFU, CNEP1R1 / Fold change vs veh, CNEP1R1 / RFU, BIVM-ERCC5 /// ERCC5 / Fold change vs veh, BIVM-ERCC5 /// ERCC5 / RFU, ILF3 / Fold change vs veh, ILF3 / RFU 11762660_at / Fold change /veh 11762660_at / RFU VCAN (11757783_s_at) / Fold change /veh VCAN (11757783_s_at) / RFU DDX43 (11728927_at) / Fold change /veh DDX43 (11728927_at) / RFU KRT8 (11758188_x_at) / Fold change /veh KRT8 (11758188_x_at) / RFU NKD1 (11759106_at) / Fold change /veh NKD1 (11759106_at) / RFU SRD5A1 (11742802_a_at) / Fold change /veh SRD5A1 (11742802_a_at) / RFU TPSAB1 /// TPSB2 (11721975_s_at) / Fold change /veh TPSAB1 /// TPSB2 (11721975_s_at) / RFU GSTM3 (11746129_a_at) / Fold change /veh GSTM3 (11746129_a_at) / RFU IL23R (11737362_x_at) / Fold change /veh IL23R (11737362_x_at) / RFU TMEM51 (11727254_a_at) / Fold change /veh TMEM51 (11727254_a_at) / RFU PIWIL2 (11732686_x_at) / Fold change /veh PIWIL2 (11732686_x_at) / RFU ORM1 (11744905_x_at) / Fold change /veh ORM1 (11744905_x_at) / RFU CCDC152 (11743942_at) / Fold change /veh CCDC152 (11743942_at) / RFU ECM1 (11717891_a_at) / Fold change /veh ECM1 (11717891_a_at) / RFU IL23R (11748794_a_at) / Fold change /veh IL23R (11748794_a_at) / RFU TNFAIP8L3 (11732012_x_at) / Fold change /veh TNFAIP8L3 (11732012_x_at) / RFU MBOAT4 (11741988_at) / Fold change /veh MBOAT4 (11741988_at) / RFU 11764193_at / Fold change /veh 11764193_at / RFU TMEM53 (11763286_at) / Fold change /veh TMEM53 (11763286_at) / RFU MAGEB2 (11727129_at) / Fold change /veh MAGEB2 (11727129_at) / RFU TMEM200A (11744735_a_at) / Fold change /veh TMEM200A (11744735_a_at) / RFU CCDC152 (11751479_a_at) / Fold change /veh CCDC152 (11751479_a_at) / RFU FAM211A (11726209_a_at) / Fold change /veh FAM211A (11726209_a_at) / RFU RGS16 (11746705_a_at) / Fold change /veh RGS16 (11746705_a_at) / RFU VCAN (11755009_s_at) / Fold change /veh VCAN (11755009_s_at) / RFU RHOB (11743442_s_at) / Fold change /veh RHOB (11743442_s_at) / RFU RGS16 (11720943_a_at) / Fold change /veh RGS16 (11720943_a_at) / RFU RGS16 (11720944_at) / Fold change /veh RGS16 (11720944_at) / RFU, VPS4B / Fold change vs veh, VPS4B / RFU, CREB1 / Fold change vs veh, CREB1 / RFU, DNAJC13 / Fold change vs veh, DNAJC13 / RFU, GNAQ / Fold change vs veh, GNAQ / RFU, CDK5R1 / Fold change vs veh, CDK5R1 / RFU, ZRANB3 / Fold change vs veh, ZRANB3 / RFU, CUL4A / Fold change vs veh, CUL4A / RFU, CCNY / Fold change vs veh, CCNY / RFU, UFL1 / Fold change vs veh, UFL1 / RFU, COG3 / Fold change vs veh, COG3 / RFU, DIAPH2 / Fold change vs veh, DIAPH2 / RFU, SKA2 / Fold change vs veh, SKA2 / RFU, AFF3 / Fold change vs veh, AFF3 / RFU, LMF1 / Fold change vs veh, LMF1 / RFU, IPO11 / Fold change vs veh, IPO11 / RFU, DFFB / Fold change vs veh, DFFB / RFU, FOXP1 / Fold change vs veh, FOXP1 / RFU, CARD8 / Fold change vs veh, CARD8 / RFU, STRN3 / Fold change vs veh, STRN3 / RFU, ADK / Fold change vs veh, ADK / RFU, RASSF2 / Fold change vs veh, RASSF2 / RFU, WIPF1 / Fold change vs veh, WIPF1 / RFU, LARP1B / Fold change vs veh, LARP1B / RFU, RASA1 / Fold change vs veh, RASA1 / RFU, RB1 / Fold change vs veh, RB1 / RFU, PPFIA1 / Fold change vs veh, PPFIA1 / RFU, MAT2A / Fold change vs veh, MAT2A / RFU, CCT5 / Fold change vs veh, CCT5 / RFU, WDR92 / Fold change vs veh, WDR92 / RFU, CUX1 / Fold change vs veh, CUX1 / RFU, TTC7A / Fold change vs veh, TTC7A / RFU, TMEM135 / Fold change vs veh, TMEM135 / RFU, DEPTOR / Fold change vs veh, DEPTOR / RFU, CPM / Fold change vs veh, CPM / RFU, DNAJB6 / Fold change vs veh, DNAJB6 / RFU, CACNA2D3 / Fold change vs veh, CACNA2D3 / RFU, DTX4 / Fold change vs veh, DTX4 / RFU, TFCP2 / Fold change vs veh, TFCP2 / RFU, GMCL1 /// GMCL1P1 / Fold change vs veh, GMCL1 /// GMCL1P1 / RFU, AEBP2 / Fold change vs veh, AEBP2 / RFU, SNHG1 /// SNORD22 /// SNORD25 /// SNORD26 /// SNORD27 /// SNORD28 /// SNORD29 /// SNORD31 / Fold change vs veh, SNHG1 /// SNORD22 /// SNORD25 /// SNORD26 /// SNORD27 /// SNORD28 /// SNORD29 /// SNORD31 / Fold change (Aza/veh), C12orf56 (ProbeSet 11735607_a_at) / Fold change (ACY-1035/veh), C12orf56 (ProbeSet 11735607_a_at) / Fold change (Aza/veh), FGFR1OP (ProbeSet 11751329_s_at) / Fold change (ACY-1035/veh), FGFR1OP (ProbeSet 11751329_s_at) / Fold change (Aza/veh), VPS36 (ProbeSet 11739960_a_at) / Fold change (ACY-1035/veh), VPS36 (ProbeSet 11739960_a_at) / RFU SYPL1 (11715823_x_at) / Fold change /veh SYPL1 (11715823_x_at) / RFU IGFBP7 (11715501_s_at) / Fold change /veh IGFBP7 (11715501_s_at) / RFU REEP3 (11722064_at) / Fold change /veh REEP3 (11722064_at) / RFU IGLL1 (11728026_x_at) / Fold change /veh IGLL1 (11728026_x_at): dose or concentration left out as unconfirmed",
  "conditions": "MV-4-11 cells, 48 hours",
  "data": [
    {"compound": "Nc1ncn([C@@H]2O[C@H](CO)[C@@H](O)[C@H]2O)c(=O)n1", "note": "[azacitidine]", "values": [
      {"measurement": "Fold change /veh FAM174B (11720279_a_at)", "value": 1.12}
    ]}
  ]
}
